Results published in the NIST ThermoML archive (doi:10.1021/je900279z).
Numbers after ± are expanded uncertainties.

Settings: Gas, Oscillating disk viscometry

For `FC(F)CC(F)(F)F` [1,1,1,3,3-pentafluoropropane], the viscosity (300.81 K, 136 kPa) was 0.01064 ± 0.00042 mPa·s, the viscosity (300.88 K, 113 kPa) was 0.01065 ± 0.00043 mPa·s and the viscosity (300.93 K, 107 kPa) was 0.01066 ± 0.00043 mPa·s. The viscosity (320.26 K, 145 kPa) was 0.01124 ± 0.00044 mPa·s, the viscosity (320.33 K, 186 kPa) was 0.01125 ± 0.00044 mPa·s and the viscosity (320.53 K, 108 kPa) was 0.01127 ± 0.00044 mPa·s. The viscosity (320.58 K, 254 kPa) was 0.01127 ± 0.00044 mPa·s, the viscosity (338.61 K, 100 kPa) was 0.01186 ± 0.00046 mPa·s and the viscosity (338.61 K, 435 kPa) was 0.01186 ± 0.00046 mPa·s. It also gave a viscosity (338.98 K, 307 kPa) of 0.01184 ± 0.00046 mPa·s, a viscosity (339.02 K, 207 kPa) of 0.01186 ± 0.00046 mPa·s and a viscosity (339.15 K, 145 kPa) of 0.01186 ± 0.00046 mPa·s. For the same compound, the viscosity (357.15 K, 592 kPa) was 0.01252 ± 0.00048 mPa·s, the viscosity (357.23 K, 104 kPa) was 0.01256 ± 0.00048 mPa·s and the viscosity (357.23 K, 305 kPa) was 0.01253 ± 0.00048 mPa·s. The viscosity (357.38 K, 159 kPa) was 0.01255 ± 0.00048 mPa·s, the viscosity (357.39 K, 108 kPa) was 0.01256 ± 0.00048 mPa·s and the viscosity (357.4 K, 224 kPa) was 0.01254 ± 0.00048 mPa·s. It also gave a viscosity (357.43 K, 403 kPa) of 0.01252 ± 0.00048 mPa·s, a viscosity (357.43 K, 708 kPa) of 0.01252 ± 0.00048 mPa·s and a viscosity (357.52 K, 503 kPa) of 0.01252 ± 0.00048 mPa·s. The viscosity (376.25 K, 164 kPa) was 0.01303 ± 0.00049 mPa·s, the viscosity (376.38 K, 254 kPa) was 0.01303 ± 0.00049 mPa·s and the viscosity (376.39 K, 567 kPa) was 0.01306 ± 0.00049 mPa·s. It also gave a viscosity (376.43 K, 1071 kPa) of 0.01318 ± 0.0005 mPa·s, a viscosity (376.46 K, 107 kPa) of 0.01304 ± 0.00049 mPa·s and a viscosity (376.54 K, 348 kPa) of 0.01304 ± 0.00049 mPa·s. It also gave a viscosity (376.58 K, 676 kPa) of 0.01308 ± 0.00049 mPa·s, a viscosity (376.61 K, 457 kPa) of 0.01305 ± 0.00049 mPa·s and a viscosity (376.61 K, 945 kPa) of 0.01314 ± 0.0005 mPa·s. It also gave a viscosity (376.63 K, 1312 kPa) of 0.01339 ± 0.0005 mPa·s, a viscosity (376.64 K, 797 kPa) of 0.0131 ± 0.00049 mPa·s and a viscosity (395.6 K, 109 kPa) of 0.01357 ± 0.00051 mPa·s. For the same compound, the viscosity (395.66 K, 213 kPa) was 0.01355 ± 0.00051 mPa·s, the viscosity (395.77 K, 311 kPa) was 0.01358 ± 0.00051 mPa·s and the viscosity (395.8 K, 417 kPa) was 0.01359 ± 0.00051 mPa·s. It also gave a viscosity (395.81 K, 823 kPa) of 0.0137 ± 0.00051 mPa·s, a viscosity (395.85 K, 512 kPa) of 0.01362 ± 0.00051 mPa·s and a viscosity (395.93 K, 616 kPa) of 0.01364 ± 0.00051 mPa·s. For the same compound, the viscosity (395.93 K, 723 kPa) was 0.01366 ± 0.00051 mPa·s, the viscosity (396 K, 934 kPa) was 0.01374 ± 0.00051 mPa·s and the viscosity (396.02 K, 1280 kPa) was 0.01396 ± 0.00052 mPa·s. The viscosity (396.17 K, 1390 kPa) was 0.01408 ± 0.00052 mPa·s, the viscosity (396.22 K, 1164 kPa) was 0.01388 ± 0.00052 mPa·s and the viscosity (396.24 K, 1044 kPa) was 0.01386 ± 0.00052 mPa·s. For the same compound, the viscosity (396.35 K, 1505 kPa) was 0.01416 ± 0.00052 mPa·s and the viscosity (396.46 K, 1614 kPa) was 0.0143 ± 0.00053 mPa·s.
For `[Ar]` [argon], the viscosity (300.11 K, 400 kPa) was 0.02271 ± 0.00077 mPa·s, the viscosity (300.17 K, 103 kPa) was 0.02279 ± 0.0011 mPa·s and the viscosity (300.19 K, 199 kPa) was 0.02265 ± 0.0011 mPa·s. The viscosity (300.25 K, 302 kPa) was 0.02265 ± 0.00077 mPa·s, the viscosity (300.32 K, 832 kPa) was 0.02286 ± 0.00078 mPa·s and the viscosity (300.38 K, 616 kPa) was 0.0228 ± 0.00077 mPa·s. It also gave a viscosity (300.49 K, 2082 kPa) of 0.02335 ± 0.00079 mPa·s, a viscosity (300.54 K, 3089 kPa) of 0.02347 ± 0.00079 mPa·s and a viscosity (300.56 K, 4050 kPa) of 0.02364 ± 0.0008 mPa·s. The viscosity (300.58 K, 4503 kPa) was 0.02383 ± 0.0008 mPa·s, the viscosity (300.63 K, 3427 kPa) was 0.02343 ± 0.00079 mPa·s and the viscosity (300.66 K, 2759 kPa) was 0.02338 ± 0.00079 mPa·s. It also gave a viscosity (300.68 K, 1446 kPa) of 0.02313 ± 0.00078 mPa·s, a viscosity (300.7 K, 3729 kPa) of 0.02351 ± 0.0008 mPa·s and a viscosity (300.72 K, 2458 kPa) of 0.02338 ± 0.00079 mPa·s. The viscosity (300.76 K, 1775 kPa) was 0.02325 ± 0.00079 mPa·s and the viscosity (300.89 K, 1117 kPa) was 0.02293 ± 0.00078 mPa·s.
